Measurements published in US8216802B2, “Detection medium for gram negative bacteria” (Biomerieux, priority 2007, dated 2012).

Experiments:
Type in all cases: cell-based
[1] = tested on: Citrobacter strains; assay: Colony coloration on supplemented Trypticase Soy medium with cellobiose (text summary)
Procedure: (§1) Various concentrations of cellobiose (0-0.1-1-5-10 g/l) are added to Trypticase Soy medium (bioMérieux) supplemented with 5-bromo-6-chloro-3-indolyl-beta-galactoside at 50 mg/l and with 5-bromo-4-chloro-3-indolyl-beta-glucoside at 50 mg/l. These media are distributed in a proportion of 20 ml per Petri dish. Microorganisms derived from the applicant's collection were inoculated on these media by semi-quantitative isolation of 10 μl of a suspension at 0.5 McFarland, diluted to 1/20. The dishes were incubated at 37° C. for 48 hours. The colonies formed were examined visually after 24 and 48 hours of incubation. The coloration of these colonies was noted.

[2] = tested on: Citrobacter freundii 031; assay: Colony coloration on supplemented Trypticase Soy medium with cellobiose; conditions: 37° C.
Procedure: as §1

[3] = tested on: Klebsiella pneumoniae 111; assay: as above; conditions: 37° C.
Procedure: as §1

[4] = tested on: Citrobacter freundii 022; assay: as above; conditions: 37° C.
Procedure: as §1

[5] = tested on: Citrobacter freundii 104; assay: as above; conditions: 37° C.
Procedure: as §1

[6] = tested on: Serratia marcescens 112; assay: as above; conditions: 37° C.
Procedure: as §1

[7] = tested on: Enterococcus faecalis 117; assay: as above; conditions: 37° C.
Procedure: as §1

[8] = tested on: Escherichia coli 018; assay: as above; conditions: 37° C.
Procedure: as §1

[9] = tested on: Escherichia coli 003; assay: as above; conditions: 37° C.
Procedure: as §1

[10] = tested on: Citrobacter freundii 031; assay: Colony coloration on CPS ID 3 medium with cellobiose; conditions: 37° C.
Procedure: (§2) Various concentrations of cellobiose (0-100-350-1000 mg/l) are added to the CPS ID 3 medium (bioMérieux). These media contain 6-chloro-3-indolyl-beta-glucuronide at 250 mg/l and 5-bromo-4-chloro-3-indolyl-beta-glucoside at 50 mg/l. These media are distributed in a proportion of 20 ml per Petri dish. Microorganisms derived from the applicant's collection were inoculated on these media by semi-quantitative isolation of 10 μl of a suspension at 0.5 McFarland, diluted to 1/20. The dishes were incubated at 37° C. for 48 hours. The colonies formed were examined visually after 24 and 48 hours of incubation. The coloration of these colonies was noted.

[11] = tested on: Klebsiella pneumoniae 111; assay: as above; conditions: 37° C.
Procedure: as §2

[12] = tested on: Citrobacter freundii 022; assay: as above; conditions: 37° C.
Procedure: as §2

[13] = tested on: Escherichia coli 407; assay: as above; conditions: 37° C.
Procedure: as §2

[14] = tested on: Citrobacter freundii 104; assay: as above; conditions: 37° C.
Procedure: as §2

[15] = tested on: Serratia marcescens 112; assay: as above; conditions: 37° C.
Procedure: as §2

[16] = tested on: Enterococcus faecalis 117; assay: as above; conditions: 37° C.
Procedure: as §2

[17] = tested on: Escherichia coli 003; assay: as above; conditions: 37° C.
Procedure: as §2

[18] = tested on: Citrobacter strains; assay: Colony coloration on CPS ID 3 medium with cellobiose (text summary); conditions: in the presence of cellobiose
Procedure: as §2

O=C[C@H](O)[C@@H](O)[C@H](O[C@@H]1O[C@H](CO)[C@@H](O)[C@H](O)[C@H]1O)[C@H](O)CO [Cellobiose, cellobiose]
Mauve: colony coloration ([2]; cellobiose 1 g/l, 24 h) | colony coloration ([2]; cellobiose 5 g/l, 24 h) | colony coloration ([2]; cellobiose 10 g/l, 24 h) | colony coloration ([2]; cellobiose 10 g/l, 48 h) | colony coloration ([4]; cellobiose 10 g/l, 24 h) | colony coloration ([4]; cellobiose 10 g/l, 48 h) | colony coloration ([5]; cellobiose 5 g/l, 24 h) | colony coloration ([5]; cellobiose 10 g/l, 24 h) | colony coloration ([5]; cellobiose 10 g/l, 48 h) | colony coloration ([8]; cellobiose 0.1 g/l, 24 h) | colony coloration ([8]; cellobiose 0.1 g/l, 48 h) | colony coloration ([8]; cellobiose 1 g/l, 24 h) | colony coloration ([8]; cellobiose 1 g/l, 48 h) | colony coloration ([8]; cellobiose 5 g/l, 24 h) | colony coloration ([8]; cellobiose 5 g/l, 48 h) | colony coloration ([8]; cellobiose 10 g/l, 24 h) | colony coloration ([8]; cellobiose 10 g/l, 48 h) | colony coloration ([9]; cellobiose 0.1 g/l, 24 h) | colony coloration ([9]; cellobiose 0.1 g/l, 48 h) | colony coloration ([9]; cellobiose 1 g/l, 24 h) | colony coloration ([9]; cellobiose 1 g/l, 48 h) | colony coloration ([9]; cellobiose 5 g/l, 24 h) | colony coloration ([9]; cellobiose 5 g/l, 48 h) | colony coloration ([9]; cellobiose 10 g/l, 24 h) | colony coloration ([9]; cellobiose 10 g/l, 48 h)
Green: colony coloration ([2]; cellobiose 0.1 g/l, 48 h) | colony coloration ([2]; cellobiose 1 g/l, 48 h) | colony coloration ([2]; cellobiose 5 g/l, 48 h) | colony coloration ([3]; cellobiose 0.1 g/l, 24 h) | colony coloration ([3]; cellobiose 1 g/l, 24 h) | colony coloration ([5]; cellobiose 0.1 g/l, 48 h) | colony coloration ([5]; cellobiose 1 g/l, 48 h) | colony coloration ([5]; cellobiose 5 g/l, 48 h) | colony coloration ([6]; cellobiose 0.1 g/l, 24 h) | colony coloration ([6]; cellobiose 1 g/l, 24 h) | colony coloration ([6]; cellobiose 5 g/l, 24 h) | colony coloration ([10]; cellobiose 100 mg/l, 24 h) | colony coloration ([10]; cellobiose 100 mg/l, 48 h) | colony coloration ([10]; cellobiose 350 mg/l, 24 h) | colony coloration ([10]; cellobiose 350 mg/l, 48 h) | colony coloration ([10]; cellobiose 1000 mg/l, 48 h) | colony coloration ([14]; cellobiose 100 mg/l, 24 h) | colony coloration ([14]; cellobiose 100 mg/l, 48 h) | colony coloration ([14]; cellobiose 350 mg/l, 24 h) | colony coloration ([14]; cellobiose 350 mg/l, 48 h) | colony coloration ([14]; cellobiose 1000 mg/l, 24 h) | colony coloration ([14]; cellobiose 1000 mg/l, 48 h)
Violet: colony coloration ([2]; cellobiose 0.1 g/l, 24 h) | colony coloration ([4]; cellobiose 0.1 g/l, 24 h) | colony coloration ([4]; cellobiose 1 g/l, 24 h) | colony coloration ([5]; cellobiose 0.1 g/l, 24 h) | colony coloration ([5]; cellobiose 1 g/l, 24 h) | colony coloration ([12]; cellobiose 100 mg/l, 24 h) | colony coloration ([12]; cellobiose 100 mg/l, 48 h) | colony coloration ([12]; cellobiose 350 mg/l, 24 h) | colony coloration ([12]; cellobiose 350 mg/l, 48 h) | colony coloration ([12]; cellobiose 1000 mg/l, 24 h) | colony coloration ([12]; cellobiose 1000 mg/l, 48 h)
Blue: colony coloration ([3]; cellobiose 0.1 g/l, 48 h) | colony coloration ([3]; cellobiose 1 g/l, 48 h) | colony coloration ([3]; cellobiose 5 g/l, 48 h) | colony coloration ([3]; cellobiose 10 g/l, 48 h) | colony coloration ([4]; cellobiose 0.1 g/l, 48 h) | colony coloration ([4]; cellobiose 1 g/l, 48 h) | colony coloration ([4]; cellobiose 5 g/l, 48 h) | colony coloration ([6]; cellobiose 0.1 g/l, 48 h) | colony coloration ([6]; cellobiose 1 g/l, 48 h) | colony coloration ([6]; cellobiose 5 g/l, 48 h) | colony coloration ([6]; cellobiose 10 g/l, 48 h)
less marked: differentiation of C. freundii from E. coli ([1]; cellobiose concentrations above 5 g/l)
Turquoise: colony coloration ([3]; cellobiose 5 g/l, 24 h) | colony coloration ([3]; cellobiose 10 g/l, 24 h) | colony coloration ([6]; cellobiose 10 g/l, 24 h) | colony coloration ([7]; cellobiose 0.1 g/l, 24 h) | colony coloration ([7]; cellobiose 0.1 g/l, 48 h) | colony coloration ([7]; cellobiose 1 g/l, 24 h) | colony coloration ([7]; cellobiose 1 g/l, 48 h) | colony coloration ([7]; cellobiose 5 g/l, 24 h) | colony coloration ([7]; cellobiose 5 g/l, 48 h) | colony coloration ([7]; cellobiose 10 g/l, 24 h) | colony coloration ([7]; cellobiose 10 g/l, 48 h) | colony coloration ([11]; cellobiose 100 mg/l, 24 h) | colony coloration ([11]; cellobiose 100 mg/l, 48 h) | colony coloration ([11]; cellobiose 350 mg/l, 24 h) | colony coloration ([11]; cellobiose 350 mg/l, 48 h) | colony coloration ([11]; cellobiose 1000 mg/l, 24 h) | colony coloration ([11]; cellobiose 1000 mg/l, 48 h) | colony coloration ([15]; cellobiose 100 mg/l, 24 h) | colony coloration ([15]; cellobiose 100 mg/l, 48 h) | colony coloration ([15]; cellobiose 350 mg/l, 24 h) | colony coloration ([15]; cellobiose 350 mg/l, 48 h) | colony coloration ([15]; cellobiose 1000 mg/l, 24 h) | colony coloration ([15]; cellobiose 1000 mg/l, 48 h) | colony coloration ([16]; cellobiose 100 mg/l, 24 h) | colony coloration ([16]; cellobiose 100 mg/l, 48 h) | colony coloration ([16]; cellobiose 350 mg/l, 24 h) | colony coloration ([16]; cellobiose 350 mg/l, 48 h) | colony coloration ([16]; cellobiose 1000 mg/l, 24 h) | colony coloration ([16]; cellobiose 1000 mg/l, 48 h)
Pink: colony coloration ([4]; cellobiose 5 g/l, 24 h) | colony coloration ([13]; cellobiose 100 mg/l, 24 h) | colony coloration ([13]; cellobiose 350 mg/l, 24 h) | colony coloration ([13]; cellobiose 1000 mg/l, 24 h) | colony coloration ([17]; cellobiose 100 mg/l, 24 h) | colony coloration ([17]; cellobiose 350 mg/l, 24 h) | colony coloration ([17]; cellobiose 1000 mg/l, 24 h)
Red: colony coloration ([13]; cellobiose 100 mg/l, 48 h) | colony coloration ([13]; cellobiose 350 mg/l, 48 h) | colony coloration ([13]; cellobiose 1000 mg/l, 48 h) | colony coloration ([17]; cellobiose 100 mg/l, 48 h) | colony coloration ([17]; cellobiose 350 mg/l, 48 h) | colony coloration ([17]; cellobiose 1000 mg/l, 48 h)
Colorless: colony coloration ([10]; cellobiose 1000 mg/l, 24 h)
green to violet coloration: coloration of the colonies (beta-glucosidase activity expressed) ([1]; in the presence of cellobiose, supplemented Trypticase Soy medium) | coloration of the colonies (beta-glucosidase activity expressed) [18]
